Laboratory results: ChEMBL document CHEMBL1138310, “Effect of structural and conformation modifications, including backbone cyclization, of hydrophilic hexapeptides on their intestinal permeability and enzymatic stability” (J Med Chem, 2007)
*1 amine or outer side, *2 acyl side, *3 side chain or, on linkers, in order; H or OH if unused. Where a SMILES comes first, the peptide text is derived from it. Bridges are numbered along the chain shown (N, C = ends). [ ]: non-standard residue; d: D form. Phe(Nα-(CH2)3CO) = O=C([C@H](Cc1ccccc1)N(CCCC(=O)[*:3])[*:1])[*:2]; Phe(Nα-CH2CH2CO) = O=C([C@H](Cc1ccccc1)N(CCC(=O)[*:3])[*:1])[*:2]; N(2-aminoethyl)Phe = O=C([C@H](Cc1ccccc1)N(CCN[*:3])[*:1])[*:2]; NMeF = CN[C@@H](Cc1ccccc1)C(=O)O; Sar = CNCC(=O)O

Columns and labels:
Intestine = test: Apparent permeability across rat small intestine; type: ADME, tissue-based
[1] = Apparent permeability across Caco-2 cells; type: ADME, cell-based; conditions: human
[2] = Metabolic stability in rat brush border vesicles; type: ADME
[3] = Permeability in biomimetic membrane layer DMPC vesicles assessed as decrease in fluorescence at 30 uM by colorimetric mixed-vesicle assay; type: ADME, cell membranes
[4] = Apparent permeability across Caco-2 cells via paracellular pathway; type: ADME, cell-based; conditions: human
[5] = Lipophilicity, log D in octanol at pH 7.4; type: physicochemical
[6] = Permeability across artificial membrane by PAMPA model; type: ADME; conditions: read-out: permeability

Row | SMILES | Papp (Intestine) [×10⁻⁶ cm/s] | Papp [1] [×10⁻⁶ cm/s] | Stability [2] | permeability [3] [%] | Papp [4] [×10⁻⁶ cm/s] | logD [5] | Papp [6] [×10⁻⁶ cm/s]
1 | NC(=O)[C@H](Cc1ccccc1)N1CCNC(=O)CCCCN[C@@H](Cc2ccccc2)C(=O)NCC(=O)NCC(=O)NCC(=O)NCC1=O | 5.02 | 1.5 | Stable |  |  |  | 
2 | CN[C@@H](Cc1ccccc1)C(=O)N[C@@H](C)C(=O)N[C@@H](C)C(=O)NCC(=O)NCC(=O)N(C)[C@@H](Cc1ccccc1)C(N)=O (H-[NMeF]AAGG[NMeF]-NH2) | 0.99 | 0.87 |  |  |  |  | 
3 | CN[C@@H](Cc1ccccc1)C(=O)NCC(=O)NCC(=O)NCC(=O)NCC(=O)N(C)[C@@H](Cc1ccccc1)C(N)=O (H-[NMeF]GGGG[NMeF]-NH2) | 0.73 | 1.82 |  | 40 |  |  | 
4 | CN[C@@H](Cc1ccccc1)C(=O)N(C)CC(=O)NCC(=O)NCC(=O)NCC(=O)N(C)[C@@H](Cc1ccccc1)C(N)=O (H-[NMeF][Sar]GGG[NMeF]-NH2) | 0.75 | 0.58 |  | 35 | 1.74 |  | 
5 | CN[C@@H](Cc1ccccc1)C(=O)N(C)CC(=O)N(C)CC(=O)NCC(=O)NCC(=O)N(C)[C@@H](Cc1ccccc1)C(N)=O (H-[NMeF][Sar][Sar]GG[NMeF]-NH2) | 1 | 0.46 |  |  |  |  | 
6 | NC(=O)[C@H](Cc1ccccc1)N1CCNC(=O)CCCN[C@@H](Cc2ccccc2)C(=O)NCC(=O)NCC(=O)NCC(=O)NCC1=O (H-[Phe(Nα-(CH2)3CO)]GGGG[N(2-aminoethyl)Phe]-NH2; lactam 1-6) | 4.2 | 2.73 | Stable |  |  |  | 
7 | C[C@H](NC(=O)[C@H](C)NC(=O)[C@H](Cc1ccccc1)NCCC(=O)O)C(=O)N[C@@H](C)C(=O)N[C@@H](C)C(=O)N(CCN)[C@@H](Cc1ccccc1)C(N)=O (H-[Phe(Nα-CH2CH2CO)]AAAA[N(2-aminoethyl)Phe]-NH2) | 0.67 | 0.2 |  |  |  |  | 
8 | C[C@@H]1NC(=O)[C@H](C)NC(=O)[C@H](Cc2ccccc2)NCCC(=O)NCCN([C@@H](Cc2ccccc2)C(N)=O)C(=O)[C@H](C)NC(=O)[C@H](C)NC1=O (H-[Phe(Nα-CH2CH2CO)]AAAA[N(2-aminoethyl)Phe]-NH2; lactam 1-6) | 5.63 | 1.47 | Stable |  |  | 0.49 | 
9 | C[C@@H]1NC(=O)[C@H](C)NC(=O)[C@H](C)NC(=O)[C@H](Cc2ccccc2)NCCC(=O)NCCN([C@@H](Cc2ccccc2)C(N)=O)C(=O)CNC1=O (H-[Phe(Nα-CH2CH2CO)]AAAG[N(2-aminoethyl)Phe]-NH2; lactam 1-6) | 6.16 | 3.47 | Stable |  |  |  | 
10 | C[C@@H]1NC(=O)[C@H](C)NC(=O)[C@H](Cc2ccccc2)NCCC(=O)NCCN([C@@H](Cc2ccccc2)C(N)=O)C(=O)CNC(=O)CNC1=O (H-[Phe(Nα-CH2CH2CO)]AAGG[N(2-aminoethyl)Phe]-NH2; lactam 1-6) | 5.26 | 3.22 | Stable |  |  |  | 
11 | C[C@@H]1NC(=O)[C@H](Cc2ccccc2)NCCC(=O)NCCN([C@@H](Cc2ccccc2)C(N)=O)C(=O)CNC(=O)CNC(=O)CNC1=O (H-[Phe(Nα-CH2CH2CO)]AGGG[N(2-aminoethyl)Phe]-NH2; lactam 1-6) | 3.89 | 1.9 | Stable |  |  |  | 
12 | NC(=O)[C@H](Cc1ccccc1)N1CCNC(=O)CCN[C@@H](Cc2ccccc2)C(=O)NCC(=O)NCC(=O)NCC(=O)NCC1=O (H-[Phe(Nα-CH2CH2CO)]GGGG[N(2-aminoethyl)Phe]-NH2; lactam 1-6) |  | 5.43 | Stable | 40 |  | -0.41 | 
13 | CN1CC(=O)NCC(=O)NCC(=O)NCC(=O)N([C@@H](Cc2ccccc2)C(N)=O)CCNC(=O)CCN[C@@H](Cc2ccccc2)C1=O (H-[Phe(Nα-CH2CH2CO)][Sar]GGG[N(2-aminoethyl)Phe]-NH2; lactam 1-6) | 4.58 | 2.22 | Stable | 35 | 7.58 | -0.57 | 
14 | CN1CC(=O)NCC(=O)NCC(=O)N([C@@H](Cc2ccccc2)C(N)=O)CCNC(=O)CCN[C@@H](Cc2ccccc2)C(=O)N(C)CC1=O (H-[Phe(Nα-CH2CH2CO)][Sar][Sar]GG[N(2-aminoethyl)Phe]-NH2; lactam 1-6) | 3.94 | 2.45 | Stable |  |  |  | 
15 | CN1CC(=O)NCC(=O)N([C@@H](Cc2ccccc2)C(N)=O)CCNC(=O)CCN[C@@H](Cc2ccccc2)C(=O)N(C)CC(=O)N(C)CC1=O (H-[Phe(Nα-CH2CH2CO)][Sar][Sar][Sar]G[N(2-aminoethyl)Phe]-NH2; lactam 1-6) | 5.63 | 2.95 | Stable |  |  |  | 
16 | CN1CC(=O)N(C)CC(=O)N([C@@H](Cc2ccccc2)C(N)=O)CCNC(=O)CCN[C@@H](Cc2ccccc2)C(=O)N(C)CC(=O)N(C)CC1=O (H-[Phe(Nα-CH2CH2CO)][Sar][Sar][Sar][Sar][N(2-aminoethyl)Phe]-NH2; lactam 1-6) | 4.87 | 1.56 | Stable |  |  |  | 
17 | Nc1nc2c(ncn2COCCO)c(=O)[nH]1 [ACYCLOVIR] |  |  |  |  |  |  | 0.01
18 | Cc1cc(=O)n(-c2ccccc2)n1C [ANTIPYRINE] |  |  |  |  |  |  | 1.18
19 | OC[C@@H](O)[C@@H](O)[C@H](O)[C@H](O)CO [MANNITOL] | 5 | 2.2 |  |  |  |  | 
20 | C[C@]12CC[C@H]3[C@@H](CCC4=CC(=O)CC[C@@]43C)[C@@H]1CC[C@@H]2O [TESTOSTERONE] |  |  |  |  |  |  | 8.67
